Where a name gives a salt, the structure may show the parent alone. Read-outs that look alike come from different tables or passages of the source. Ends that are not written are not given here. Peptide text beside a SMILES is read from it.
What was measured:
[1] = tested on: NCI-H292 lung cancer cells; assay: FDA drug screening, complete media vs cholesterol-free media without statin (TABLE 1); format: cell-based, human
[2] = tested on: NCI-H292 lung cancer cells; assay: FDA drug screening, complete media vs cholesterol-free media with simvastatin (TABLE 2); format: cell-based, human
[3] = NCI-H292 cells, cholesterol-free media without statin, FDA drug library screen
[4] = NCI-H292 cells, complete media, FDA drug library screen
[5] = complete vs cholesterol-free media, […]
[6] = NCI-H292 cells, FDA drug library screen, cholesterol-free media with simvastatin 0.04 μM
[7] = NCI-H292 cells, FDA drug library screen, complete media
[8] = Complete minus Cholesterol-free, >0 enhanced anti-cancer activity, about 0 neutral, <0 antagonist
[9] = NCI-H292 cells, cholesterol-free media without statin
[10] = NCI-H292 cells, cholesterol-free media with simvastatin 0.04 μM, cell growth value in FDA drug screen
[11] = NCI-H292 cells, complete media, cell growth value in FDA drug screen
[12] = complete media minus cholesterol-free media + simvastatin, >0 enhanced anti-cancer activity, about 0 neutral, <0 antagonist
[13] = complete vs cholesterol-free media, greater than 0 enhanced anti-cancer activity, about 0 neutral, below 0 antagonists
[14] = NCI-H292 cells, drug in cholesterol-free media with simvastatin 0.04 μM
[15] = NCI-H292 cells, drug in complete media
[16] = complete media vs cholesterol-free media + simvastatin (0.04 μM), >0 enhanced anti-cancer activity, about 0 neutral, <0 antagonist
[17] = NCI-H292 cells, cholesterol-free media with simvastatin 0.04 μM, FDA drug library screen (TABLE 2)
[18] = NCI-H292 cells, complete media, FDA drug library screen (TABLE 2)
[19] = complete media minus cholesterol-free media + simvastatin (0.04 μM), >0 enhanced anti-cancer activity, about 0 neutral, <0 antagonist
[20] = complete vs cholesterol-free media, >0 enhanced anti-cancer activity, about 0 neutral, <0 antagonist
[21] = Complete minus Cholesterol-free, […]
[22] = complete media minus cholesterol-free media + simvastatin (0.04 μM), […]
[23] = Complete minus Cholesterol-free, greater than 0 enhanced anti-cancer activity, about 0 neutral, below 0 antagonist
[24] = NCI-H292 cells, FDA drug library screen, cholesterol-free media without statin
[25] = NCI-H292 cells, FDA library drug in cholesterol-free media with simvastatin 0.04 μM
[26] = NCI-H292 cells, FDA library drug in complete media
[27] = complete media vs cholesterol-free media + simvastatin (0.04 μM), […]

Molecule	Cholesterol-free [1, 3]	Complete [1, 4]	Cholesterol-free media + simvastatin (0.04 μM) [2, 6]	Complete Media [2, 7]	Difference [1, 8]	Cholesterol-free [1, 9]	Complete ([1]; NCI-H292 cells, complete media)	Difference [2, 16]	further results
COS(=O)(=O)[O-].COc1cc(N)cn[n+]1-c1ccccc1 [Amezinium (methylsulfate)]	1.242	1.933	1.322	1.744	–	–	–	–	Difference [1, 5]: 0.69; Difference ([2]; complete media minus cholesterol-free media + simvastatin, […]): 0.42
CCOC(=O)[C@H](C)C[C@@H](Cc1ccc(-c2ccccc2)cc1)NC(=O)CCC(=O)O [Sacubitril]	–	–	–	–	−0.30	1.009	0.7049	–	Cholesterol-free media + simvastatin (0.04 μM) [2, 10]: 1.492; Complete Media [2, 11]: 1.622; Difference [2, 12]: 0.13
CCOc1ccc2nc(SCCN3CCOCC3)[nH]c2c1 [Fabomotizole (hydrochloride)]	–	–	–	–	–	1.463	1.068	−0.22	Difference [1, 13]: −0.39; Cholesterol-free media + simvastatin (0.04 μM) [2, 14]: 1.167; Complete Media [2, 15]: 0.9459
Cc1cn([C@@H]2C[C@@H](O)[C@H](CO)O2)c(=O)[nH]c1=O [Telbivudine]	0.8613	0.8275	–	–	−0.03	–	–	–	Cholesterol-free media + simvastatin (0.04 μM) [2, 17]: 0.8748; Complete Media [2, 18]: 0.8605; Difference [2, 19]: −0.01
CC(=C(CCOC(=O)C(C)C)SSC(CCOC(=O)C(C)C)=C(C)N(C=O)Cc1cnc(C)nc1N)N(C=O)Cc1cnc(C)nc1N (stereo in doubt) [Sulbutiamine]	1.257	1.438	–	–	–	–	–	–	Difference [1, 20]: 0.18; Cholesterol-free media + simvastatin (0.04 μM) [2, 10]: 0.8359; Complete Media [2, 11]: 0.9183; Difference [2, 12]: 0.08
Cyclic somatostatin (AGCKNFFWKTFTSC; not fully specified (bridges); cysteine pairing not given here; UniProt P61278 103-116, looked up)	1.02	1.023	–	–	–	–	–	–	Difference [1, 21]: 0.00; Cholesterol-free media + simvastatin (0.04 μM) [2, 17]: 0.9769; Difference [2, 22]: −0.04
CCCCC(=O)O[C@H]1CC[C@H]2[C@@H]3CCc4cc(O)ccc4[C@H]3CC[C@]12C [Estradiol valerianate]	–	–	–	–	–	1.221	0.8253	–	Difference [1, 13]: −0.40; Cholesterol-free media + simvastatin (0.04 μM) [2, 17]: 0.9732; Complete Media [2, 18]: 0.9423; Difference [2, 19]: −0.03
CC(C)CN(C[C@@H](OP(=O)(O)O)[C@H](Cc1ccccc1)NC(=O)O[C@H]1CCOC1)S(=O)(=O)c1ccc(N)cc1 [Fosamprenavir]	0.7855	0.7241	1.194	1.12	−0.06	–	–	−0.07	–
NC(=O)CCC(N)C(=O)O (racemic) [DL-Glutamine]	–	–	–	–	–	–	–	−0.31	Difference [1, 23]: −0.07; Cholesterol-free [1, 24]: 1.771; Complete [1, 7]: 1.698; Cholesterol-free media + simvastatin (0.04 μM) [2, 25]: 0.9407; Complete Media [2, 26]: 0.6307
Cc1ncc(C[n+]2csc(CCO)c2C)c(N)n1 [Thiamine (hydrochloride)]	–	–	–	–	−0.20	1.324	1.125	–	Cholesterol-free media + simvastatin (0.04 μM) [2, 10]: 1.098; Complete Media [2, 11]: 1.117; Difference [2, 12]: 0.02
Tofacitinib (citrate)	–	–	–	–	−0.26	0.8106	0.5473	−0.23	Cholesterol-free media + simvastatin (0.04 μM) [2, 14]: 0.9122; Complete Media [2, 15]: 0.6806
Indacaterol (maleate)	–	–	1.032	0.9157	–	1.314	1.116	–	Difference [1, 21]: −0.20; Difference [2, 27]: −0.12
CCN1CCN(Cc2ccc(Nc3ncc(F)c(-c4cc(F)c5nc(C)n(C(C)C)c5c4)n3)nc2)CC1 [Abemaciclib]	0.7212	0.8498	–	–	–	–	–	−0.34	Difference [1, 20]: 0.13; Cholesterol-free media + simvastatin (0.04 μM) [2, 25]: 1.011; Complete Media [2, 26]: 0.6686
OCCOc1ccc(/C(=C(/CCCl)c2ccccc2)c2ccccc2)cc1 [Ospemifene]	–	–	–	–	–	–	–	–	Cholesterol-free [1]: 1.029; Complete [1]: 1.255; Difference [1]: 0.23; Cholesterol-free media + simvastatin (0.04 μM) [2]: 1.909; Complete Media [2]: 1.222; Difference [2]: −0.69
NCCc1c[nH]cn1 [Histamine]	0.9318	0.9813	1.15	1.573	0.05	–	–	–	Difference [2, 12]: 0.42
O=C(O)c1ccccc1O [Salicylic acid]	–	–	0.9788	0.8703	–	–	–	−0.11	Difference [1, 23]: −0.09; Cholesterol-free [1, 24]: 0.9773; Complete [1, 7]: 0.8829
C[C@@H]1NC(=O)[C@@H]2CCCN2C(=O)[C@H](CC(N)=O)NC(=O)[C@@H]2CSSC[C@H](N)C(=O)N[C@H]3CSSC[C@H](NC1=O)C(=O)N[C@@H]([C@@H](C)O)C(=O)NCC(=O)N[C@H](C(=O)N[C@@H](Cc1ccc(O)cc1)C(=O)O)CSSC[C@H](NC(=O)[C@H](Cc1ccc(O)cc1)NC(=O)[C@H](CCC(=O)O)NC3=O)C(=O)N2 [Linaclotide] (HELM PEPTIDE1{C.C.E.Y.C.C.N.P.A.C.T.G.C.Y}$PEPTIDE1,PEPTIDE1,1:R3-6:R3|PEPTIDE1,PEPTIDE1,2:R3-10:R3|PEPTIDE1,PEPTIDE1,5:R3-13:R3$$$V2.0)	1.326	1.765	0.9562	0.8554	–	–	–	–	Difference [1, 5]: 0.44; Difference [2, 27]: −0.10
OCc1ccccc1 [Benzyl alcohol]	–	–	0.8765	1.062	–	–	–	–	Difference [1, 23]: −0.14; Cholesterol-free [1, 24]: 1.033; Complete [1, 7]: 0.8945; Difference [2, 12]: 0.19
CCC(C)n1ncn(-c2ccc(N3CCN(c4ccc(OCC5COC(Cn6cncn6)(c6ccc(Cl)cc6Cl)O5)cc4)CC3)cc2)c1=O (stereo not shown) [Itraconazole]	0.7502	1.257	1.121	0.9797	–	–	–	−0.14	Difference [1, 20]: 0.51
CC(C)(O/N=C(\C(=O)N[C@@H]1C(=O)N2C(C(=O)[O-])=C(C[n+]3ccccc3)CS[C@H]12)c1csc(N)n1)C(=O)O [Ceftazidime]	0.9478	0.8943	–	–	−0.05	–	–	−0.24	Cholesterol-free media + simvastatin (0.04 μM) [2, 14]: 1.391
COc1ccc(C(=O)c2ccccc2)c(O)c1 [Oxybenzone]	–	–	–	–	−0.29	1.383	1.094	−0.26	Cholesterol-free media + simvastatin (0.04 μM) [2, 14]: 1.175; Complete Media [2, 15]: 0.918
N#Cc1nn(-c2c(Cl)cc(C(F)(F)F)cc2Cl)c(N)c1[S+]([O-])C(F)(F)F (stereo not shown) [Fipronil]	–	–	–	–	–	1.217	1	–	Difference [1, 21]: −0.22; Cholesterol-free media + simvastatin (0.04 μM) [2, 17]: 1.235; Complete Media [2, 18]: 1.184; Difference [2, 22]: −0.05

Reference: patent publication US20250144067A1, “PERSONALIZED STARVATION THERAPY FOR CANCER” (Faeth Therapeutics, Inc., priority 2021, published 2025)
